Assay results as given in patent US20090209474A1, “NOVEL USES FOR DRUGS TARGETING GLUTAMINE SYNTHETASE” (NEWTHERA, priority 2005, published 2009).
“Also recorded” adds a separate entry of the source. Like-named read-outs stand apart in the source and are kept apart here.

Experiments:
[1] = biological target: T1, GS (Rattus norvegicus, UniProt P09606); settings: for lung GS activity: versus PCB
[2] = Adrenal weight in corticosterone-administered rats; format: in vivo, Wistar rats; settings: 21 days, versus PCB
[3] = test system: mice; settings: cited from earlier work
[4] = biological target: T1, GS; format: in vivo, Wistar rats; design: Wistar rat brain homogenates were incubated with naftazone; from tissue; host or cells: Wistar rat brain homogenate or membranes; in A19 also liver and lungs
[5] = test system: CA3 pyramidal neurons; assay: Surface of CA3 pyramidal neurons (Golgi) in corticosterone-administered rats; format: in vivo, Wistar rats; settings: 21 days
[6] = test system: purified sheep brain GS; assay: Purified sheep brain GS activity (Meister's method, gamma-glutamylhydroxamate formation); format: biochemical
[7] = Adrenal weight of rats administered methylprednisolone; format: in vivo, Wistar rats
Experimental: Wistar rats were administered during 21 days once a day with methyprednisolone (5 mg/kg i.p.) plus GF (0.001, 0.01, 0.1 mg/kg), NF (1 and 10 mg/kg) or vehicle (PCB; i.p). Twenty-four hours after the last administrations, they were euthanatized. A complete necropsy was performed and main organs weighted.

[8] = test system: Wistar rats; assay: Forced swimming test in corticosterone-administered rats; format: in vivo
[9] = test system: pathogenic mycobacteria; settings: cited from earlier work
[10] = test system: rats; settings: rat, in vivo; cited from earlier work
[11] = test system: dogs; settings: based on decreased body weight at higher doses; cited from earlier work
[12] = test system: Wistar rats; assay: PTZ-induced seizures; format: in vivo
[13] = test system: GS; settings: rat, in vivo
[14] = test system: GS; settings: literature (Meister 1985; Eisenberg et al., 2000); cited from earlier work
[15] = test system: rats; settings: cited from earlier work
[16] = biological target: T2, GS (Mus musculus, UniProt P15105); settings: 24 h after single i.p.
[17] = biological target: T1, GS; settings: GF 1 mg/kg, tianeptine 10 mg/kg, methyprednisolone 5 mg/kg i.p.
[18] = test system: Wistar rats; assay: Open field task in corticosterone-administered rats; format: in vivo; settings: day 15, corticosterone 35 mg/kg s.c.; versus PCB and Control
[19] = in vivo, cited from earlier work
[20] = test system: mice; settings: cited from earlier work; remark: listed apart in the source
[21] = biological target: brain GS (Mus musculus, UniProt P15105); settings: i.p. 7 days
[22] = test system: rats; settings: rat, in vivo; cited from earlier work; remark: listed apart in the source
[23] = biological target: T2, GS; format: in vivo, BALB/c mice; design: from tissue; host or cells: mouse brain (whole brain, cortex, hippocampus, thalamus/hypothalamus); settings: 24 h after single i.p.; NF 10 and 100 mg/kg, GF 1 mg/kg
Experimental: Cortex, hippocampi and thalamus/hypothalamus were carefully isolated immediately after euthanasia. Membranes were prepared and the activity of GS determined in these different structures (as mentioned above for the whole brain).

[24] = test system: glucocorticoid receptor (GR); assay: Brain glucocorticoid receptor expression by ELISA in corticosterone-administered rats; format: in vivo, Wistar rats; settings: GF 0.1 and 3 mg/kg, MS 0.5, 15 and 45 mg/kg, tianeptine 0.5 mg/kg; versus PCB
[25] = test system: rabbits; settings: rabbit, in vivo; cited from earlier work
[26] = 21 days, versus PCB and Control
[27] = GF 3 mg/kg, tianeptine 15 mg/kg

Chain of brain GS (P15105 2-373 limits assumed): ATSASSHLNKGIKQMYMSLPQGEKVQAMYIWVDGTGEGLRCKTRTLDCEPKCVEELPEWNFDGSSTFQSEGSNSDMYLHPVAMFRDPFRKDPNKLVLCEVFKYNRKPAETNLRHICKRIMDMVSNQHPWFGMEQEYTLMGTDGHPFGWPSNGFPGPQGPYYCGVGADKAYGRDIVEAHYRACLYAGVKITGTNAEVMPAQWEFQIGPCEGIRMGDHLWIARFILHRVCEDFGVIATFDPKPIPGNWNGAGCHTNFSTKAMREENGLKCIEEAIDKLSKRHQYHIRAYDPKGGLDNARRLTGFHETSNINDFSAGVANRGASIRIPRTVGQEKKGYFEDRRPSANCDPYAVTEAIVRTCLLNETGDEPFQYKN
T2 sequence (P15105 2-373 limits assumed): as above
T1 sequence (P09606 2-373 limits assumed): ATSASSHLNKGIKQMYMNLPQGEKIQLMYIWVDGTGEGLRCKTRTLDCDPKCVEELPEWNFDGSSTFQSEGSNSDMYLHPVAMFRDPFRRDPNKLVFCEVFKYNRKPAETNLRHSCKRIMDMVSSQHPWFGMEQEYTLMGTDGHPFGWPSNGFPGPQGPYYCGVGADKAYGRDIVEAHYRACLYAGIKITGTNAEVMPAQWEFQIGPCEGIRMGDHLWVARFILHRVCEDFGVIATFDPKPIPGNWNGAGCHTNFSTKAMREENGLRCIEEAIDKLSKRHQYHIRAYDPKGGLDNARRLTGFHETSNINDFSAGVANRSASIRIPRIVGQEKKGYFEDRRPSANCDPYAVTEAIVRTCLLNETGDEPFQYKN

Compound: CP(=O)(O)CCC(N)C(=O)O (racemic) [GF, ammonium 4-[hydroxy (methyl)phosphinoyl]-DL-homoalaninate]
- lung GS activity ([1]; 21 days, most rats): decrease in lung GS activity
- brain GS activity [1, 26]: dose-dependent decrease
- liver GS activity [1, 26]: clear decrease
- lung GS activity [1, 27]: remained in the same range
- adrenal weight [2]: higher
- NOAEL ([3]; increased mortality at higher dietary concentrations): 80 ppm
- NOAEL ([3]; mouse, in vivo): 11 mg/kg bw/day
- carcinogenicity ([3]; mouse, in vivo): not carcinogenic
- GS activity in the cortex, hippocampus and thalamus/hypothalamus ([4]; one hour after PTZ administration): increased GS activity
- dose relation of the effects on GS activity ([4]; rat, in vivo): not proportional to the dose
- effects of corticosterone on CA3 pyramidal neurons ([5]; GF 15 mg/kg): failed to blunt the effects of corticosterone
- effects of corticosterone on CA3 pyramidal neurons ([5]; GF 0.1 and 3 mg/kg): prevent in part the deleterious effects of corticosterone
- type of competition [6]: competitive with L-glutamine
- effect on GS activity at “high” concentrations ([6]; in absence of 2βME): inhibit GS activity at “high” concentrations
- “low concentrations” that activate GS activity ([6]; in absence of 2βME): 10^−4 to 10^−11 M
- effect on GS subunit (monomer) activity ([6]; in presence of 2β-ME (DTT for tianeptine)): inhibit GS activity at “high” concentrations
- methylprednisolone-induced adrenal atrophy ([7]; GF 0.001 mg/kg): fully prevented
- adrenal weight ([7]; GF 0.001, 0.01, 0.1 mg/kg, NF 1 and 10 mg/kg, methyprednisolone 5 mg/kg i.p., 21 days, versus PCB): higher
- dose relation of the effect on adrenal weight ([7]; rat, in vivo): non dose-dependent effect
- immobility in the forced swimming test ([8]; GF 0.1 mg/kg, tianeptine 0.5 mg/kg): clear decrease in immobility
- immobility in the forced swimming test ([8]; day 19, corticosterone 35 mg/kg s.c., versus PCB and Control): comparable or lower
- effect on mycobacterium growth [9]: only a very minor inhibitory effect
- dose levels with effects on kidney weight [10]: ≥ 0.52 mg/kg bw/day
- NOAEL [11]: 4.5 mg/kg bw/day
- seizure occurrence after PTZ administration ([12]; GF 0.5, 5, 25 mg/kg, tianeptine 1, 10, 50 mg/kg i.p. 1 h before PTZ 50 mg/kg i.p.): decreased seizure occurrence
- dose relation of the effect on seizures ([12]; rat, in vivo): not dose-dependent
- brain GS expression [13]: higher
- nature of the binding to GS [14]: selective, irreversible GS ligand; also recorded: bind GS irreversibly
- NOAEL ([15]; increased kidney weight at 140 ppm): 40 ppm
- NOAEL ([15]; rat, in vivo): 2.1 mg/kg bw/day
- carcinogenicity ([15]; rat, in vivo): not carcinogenic
- GS activity in the hippocampus [16]: dose-dependently increased GS activity
- GS activity in the thalamus/hypothalamus [16]: decreased GS activity
- GS activity in the cortex ([16]; GF 0.1, 3, 15 mg/kg, tianeptine 0.5, 15, 45 mg/kg): no significant effect
- GS activity in the cortex [17]: Trend to an Decrease
- GS activity in the hippocampus [17]: Increase of GS Activity
- GS activity in the thalamus/hypothalamus ([17]; 1 h and 24 h after last administration): Decreased GS Activity
- resting time in the open field task [18]: higher
- part of an oral dose eliminated in the urine ([19]; po): 10-15%
- main metabolite found in urine and in faeces [19]: 3-[hydroxy(methyl)phosphinoyl] propionic acid
- NOAEL ([20]; based upon increased plasma potassium at next highest dose): 80 ppm
- NOAEL ([20]; females): 19 mg/kg bw/day
- NOAEL ([20]; males): 17 mg/kg bw/day
- brain GS expression [21, 27]: increased also GS expression
- whole brain GS activity [21, 27]: increase GS activity
- dose relation of effects on GS activity and GS expression [21]: dose-dependent
- whole brain GS activity at higher doses ([21]; doses above GF 3 mg/kg, tianeptine 15 mg/kg): decreased GS activity
- NOAEL for maternal and embryo/fetal toxicity [22]: 2.2 mg/kg bw/day
- teratogenicity [22]: not teratogenic
- GS activity in the thalamus/hypothalamus [23]: decreased
- brain GR expression [24]: higher
- NOAEL for maternal and embryo/fetal toxicity [25]: 6.3 mg/kg bw/day
- teratogenicity [25]: not teratogenic
